Measured values published in ChEMBL document CHEMBL4177643, “Trisubstituted purine inhibitors of PDGFRα and their antileukemic activity in the human eosinophilic cell line EOL-1” (Bioorg Med Chem, 2017).

What was measured:
[1] = molecular target: Platelet-derived growth factor receptor alpha (Homo sapiens, UniProt P16234); test: Inhibition of recombinant human N-terminal GST-His6 tagged PDGFRalpha (Q551 to L1089 residues) expressed in Sf9 insect cells using poly(Ala,Glu,Lys,Tyr)6:2:5:1 hydrobromide as substrate in presence of [gamma-33P]ATP
[2] = molecular target: Cyclin-dependent kinase 2/cyclin E1 (Homo sapiens, UniProt P24941); test: Inhibition of CDK2/cyclin E (unknown origin) expressed in baculovirus infected insect Sf9 cells using histone H1 as substrate in presence of [gamma-33P]ATP
HCC827 [3] = test: Cytotoxicity against human HCC827 cells assessed as growth inhibition after 72 hrs by calcein-AM dye based fluorescence assay; type: functional; details: HCC827, 72 h
BT-474 = test: Cytotoxicity against human BT474 cells assessed as growth inhibition after 72 hrs by calcein-AM dye based fluorescence assay; type: functional; details: BT-474, 72 h
MCF7 = test: Cytotoxicity against human MCF7 cells assessed as growth inhibition after 72 hrs by calcein-AM dye based fluorescence assay; type: functional; details: MCF7, 72 h
K562 [4] = test: Cytotoxicity against human K562 cells assessed as growth inhibition after 72 hrs by calcein-AM dye based fluorescence assay; type: functional; details: K562, 72 h
EOL1 [5] = test: Cytotoxicity against human EOL-1 cells assessed as growth inhibition after 72 hrs by calcein-AM dye based fluorescence assay; type: functional; details: EOL1, 72 h
EOL1 [6] = test: Cell cycle arrest in human EOL-1 cells assessed as G1/G2-M ratio at GI50 concentration after 24 hrs by propidium iodide staining-based flow cytometry relative to control; type: functional
HCC827 [7] = test: Cell cycle arrest in human HCC827 cells assessed as G1/G2-M ratio at GI50 concentration after 24 hrs by propidium iodide staining-based flow cytometry relative to control; type: functional
K562 [8] = test: Cell cycle arrest in human K562 cells assessed as G1/G2-M ratio at GI50 concentration after 24 hrs by propidium iodide staining-based flow cytometry relative to control; type: functional
EOL1 [9] = test: Cell cycle arrest in human EOL-1 cells assessed as accumulation at sub-G1 phase at 0.008 uM after 24 hrs by propidium iodide staining-based flow cytometry (reference value: 20%); type: functional
EOL1 [10] = test: Cell cycle arrest in human EOL-1 cells assessed as accumulation at sub-G1 phase at 0.04 uM after 24 hrs by propidium iodide staining-based flow cytometry (reference value: 20%); type: functional
EOL1 [11] = test: Cell cycle arrest in human EOL-1 cells assessed as accumulation at sub-G1 phase at 0.2 uM after 24 hrs by propidium iodide staining-based flow cytometry (reference value: 20%); type: functional
EOL1 [12] = test: Cell cycle arrest in human EOL-1 cells assessed as accumulation at sub-G1 phase at 1 uM after 24 hrs by propidium iodide staining-based flow cytometry (reference value: 20%); type: functional
EOL1 [13] = test: Cell cycle arrest in human EOL-1 cells assessed as accumulation at G1 phase at 0.008 uM after 24 hrs by propidium iodide staining-based flow cytometry (reference value: 60.9%); type: functional
EOL1 [14] = test: Cell cycle arrest in human EOL-1 cells assessed as accumulation at G1 phase at 0.04 uM after 24 hrs by propidium iodide staining-based flow cytometry (reference value: 60.9%); type: functional
EOL1 [15] = test: Cell cycle arrest in human EOL-1 cells assessed as accumulation at G1 phase at 0.2 uM after 24 hrs by propidium iodide staining-based flow cytometry (reference value: 60.9%); type: functional
EOL1 [16] = test: Cell cycle arrest in human EOL-1 cells assessed as accumulation at G1 phase at 1 uM after 24 hrs by propidium iodide staining-based flow cytometry (reference value: 60.9%); type: functional
EOL1 [17] = test: Cell cycle arrest in human EOL-1 cells assessed as accumulation at S phase at 0.008 uM after 24 hrs by propidium iodide staining-based flow cytometry (reference value: 20.7%); type: functional
EOL1 [18] = test: Cell cycle arrest in human EOL-1 cells assessed as accumulation at S phase at 0.04 uM after 24 hrs by propidium iodide staining-based flow cytometry (reference value: 20.7%); type: functional
EOL1 [19] = test: Cell cycle arrest in human EOL-1 cells assessed as accumulation at S phase at 0.2 uM after 24 hrs by propidium iodide staining-based flow cytometry (reference value: 20.7%); type: functional
EOL1 [20] = test: Cell cycle arrest in human EOL-1 cells assessed as accumulation at S phase at 1 uM after 24 hrs by propidium iodide staining-based flow cytometry (reference value: 20.7%); type: functional
EOL1 [21] = test: Cell cycle arrest in human EOL-1 cells assessed as accumulation at G2/M phase at 0.008 uM after 24 hrs by propidium iodide staining-based flow cytometry (reference value: 18.4%); type: functional
EOL1 [22] = test: Cell cycle arrest in human EOL-1 cells assessed as accumulation at G2/M phase at 0.04 uM after 24 hrs by propidium iodide staining-based flow cytometry (reference value: 18.4%); type: functional
EOL1 [23] = test: Cell cycle arrest in human EOL-1 cells assessed as accumulation at G2/M phase at 0.2 uM after 24 hrs by propidium iodide staining-based flow cytometry (reference value: 18.4%); type: functional
EOL1 [24] = test: Cell cycle arrest in human EOL-1 cells assessed as accumulation at G2/M phase at 1 uM after 24 hrs by propidium iodide staining-based flow cytometry (reference value: 18.4%); type: functional

Sequence of Platelet-derived growth factor receptor alpha (P16234 whole entry, the tested form may be a part): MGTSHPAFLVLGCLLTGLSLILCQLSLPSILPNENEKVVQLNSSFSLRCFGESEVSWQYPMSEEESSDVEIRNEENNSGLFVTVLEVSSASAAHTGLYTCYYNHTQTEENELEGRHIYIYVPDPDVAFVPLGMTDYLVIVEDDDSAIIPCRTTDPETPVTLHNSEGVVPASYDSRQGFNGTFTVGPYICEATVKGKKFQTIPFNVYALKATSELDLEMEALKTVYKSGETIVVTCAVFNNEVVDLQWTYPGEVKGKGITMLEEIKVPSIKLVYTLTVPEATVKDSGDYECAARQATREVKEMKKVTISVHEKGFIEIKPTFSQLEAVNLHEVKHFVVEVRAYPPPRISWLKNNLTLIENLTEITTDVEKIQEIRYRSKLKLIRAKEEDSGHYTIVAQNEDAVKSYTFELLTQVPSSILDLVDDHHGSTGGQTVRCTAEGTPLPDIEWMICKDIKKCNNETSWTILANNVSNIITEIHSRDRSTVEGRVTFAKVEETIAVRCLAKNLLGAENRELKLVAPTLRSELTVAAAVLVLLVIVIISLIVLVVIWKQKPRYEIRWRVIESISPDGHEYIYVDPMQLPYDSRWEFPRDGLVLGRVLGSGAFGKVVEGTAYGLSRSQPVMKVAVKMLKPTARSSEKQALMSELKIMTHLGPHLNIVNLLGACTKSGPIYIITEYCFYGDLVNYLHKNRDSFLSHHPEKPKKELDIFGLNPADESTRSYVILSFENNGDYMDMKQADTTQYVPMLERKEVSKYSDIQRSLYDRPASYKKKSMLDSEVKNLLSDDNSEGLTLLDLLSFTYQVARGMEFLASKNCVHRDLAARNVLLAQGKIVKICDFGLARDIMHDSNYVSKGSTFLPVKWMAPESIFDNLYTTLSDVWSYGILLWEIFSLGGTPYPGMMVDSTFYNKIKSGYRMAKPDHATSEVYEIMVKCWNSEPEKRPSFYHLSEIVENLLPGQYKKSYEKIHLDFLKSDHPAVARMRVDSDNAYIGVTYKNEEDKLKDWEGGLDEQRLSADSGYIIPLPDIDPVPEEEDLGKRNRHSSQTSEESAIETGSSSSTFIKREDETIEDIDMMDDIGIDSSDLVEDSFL

CC(C)CCn1cnc2c(Nc3cccc(Cl)c3)nc(N[C@H]3CC[C@H](N)CC3)nc21
IC50 [1]: 66 nM
IC50 [2]: 275 nM
GI50 (HCC827 [3]): 10300 nM
GI50 (BT-474): 3800 nM
GI50 (MCF7): 2100 nM
GI50 (K562 [4]): 1500 nM
GI50 (EOL1 [5]): 60 nM
Ratio (EOL1 [6]): 6
Ratio (HCC827 [7]): 1.33
Ratio (K562 [8]): 1.1
Activity (EOL1 [9]): 27.9%
Activity (EOL1 [10]): 36.5%
Activity (EOL1 [11]): 49.8%
Activity (EOL1 [12]): 46.3%
Activity (EOL1 [13]): 77.1%
Activity (EOL1 [14]): 86.1%
Activity (EOL1 [15]): 86.3%
Activity (EOL1 [16]): 79.9%
Activity (EOL1 [17]): 12.5%
Activity (EOL1 [18]): 7.7%
Activity (EOL1 [19]): 10.6%
Activity (EOL1 [20]): 14.5%
Activity (EOL1 [21]): 10.4%
Activity (EOL1 [22]): 6.2%
Activity (EOL1 [23]): 3.1%
Activity (EOL1 [24]): 5.6%
